The target in the assay is T1, dihydrolipoamide acyltransferase (DlaT) (Mycobacterium tuberculosis, UniProt P9WIS7).
T1 sequence (P9WIS7 1-553): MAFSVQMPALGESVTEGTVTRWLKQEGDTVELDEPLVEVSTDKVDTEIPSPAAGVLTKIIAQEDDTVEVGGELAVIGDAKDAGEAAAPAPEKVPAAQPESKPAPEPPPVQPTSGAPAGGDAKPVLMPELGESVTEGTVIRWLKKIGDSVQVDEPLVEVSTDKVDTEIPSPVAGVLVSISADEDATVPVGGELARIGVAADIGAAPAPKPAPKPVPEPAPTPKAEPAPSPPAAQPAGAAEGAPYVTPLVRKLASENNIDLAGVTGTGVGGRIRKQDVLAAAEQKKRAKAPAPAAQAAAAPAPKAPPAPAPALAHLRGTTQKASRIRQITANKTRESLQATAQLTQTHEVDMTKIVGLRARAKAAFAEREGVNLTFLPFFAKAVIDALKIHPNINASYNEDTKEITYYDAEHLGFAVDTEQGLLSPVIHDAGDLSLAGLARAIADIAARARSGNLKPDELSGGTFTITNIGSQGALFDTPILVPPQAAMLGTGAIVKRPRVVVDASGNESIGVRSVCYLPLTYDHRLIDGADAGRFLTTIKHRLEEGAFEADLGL
In words: DlaT inhibition (Dlat IC50); DTNB peroxidase assay with Lpd, DlaT and AhpD. It counts as biochemical.

[1] abbreviates: Table 1, Compounds A1 to A294, read-out: Dlat IC50 category.
[2] abbreviates: Dlat IC50 category, Table 20, Prodrugs (Compounds T1 to T8).

Experimental findings from patent US8338465B2, “Cyclic carboxylic acid rhodanine derivatives for the treatment and prevention of tuberculosis” (priority 2006, dated 2012) are described below.

Like-named read-outs stand apart in the source and are kept apart here.

Broadly, the IC50 is the midpoint of a concentration-inhibition curve. For the molecule `CC(C)c1cccc(-c2ccc(C=C3SC(=S)N(c4cccc(C(=O)O)c4)C3=O)o2)c1` [Compound A54], the half-maximal inhibitory concentration (IC50) under setting [1] is less than 10 µM.
As to `O=C(O)CCCCCN1C(=O)C(=Cc2ccc(-c3ccc(O)cc3)o2)SC1=S` [Compound B27], under “Dlat IC50 category”, the 50% inhibitory concentration (IC50) was less than 10 µM.
On to `O=C(O)CCN1C(=O)C(=Cc2ccc(-c3ccc(Cc4ccccc4)cc3)o2)SC1=S` [Compound B31], for which the IC50 (Dlat IC50 category) is less than 10 µM.
`O=C(O)c1cccc(N2C(=O)C(=Cc3ccc(-c4ccccc4F)s3)SC2=S)c1` [Compound A195]: the IC50 under setting [1] lay in the range of 11 to 40 µM.
`CSc1ccccc1-c1ccc(C=C2SC(=S)N(Nc3ccccc3C(=O)O)C2=O)o1` [Compound D30, 2-{5-[1-[5-(2-methylsulfanyl-phenyl)-furan-2-yl]-methylidene]-4-oxo-2-thioxo-thiazolidin-3-ylamino}-benzoic acid] gave a concentration for half-maximal inhibition (IC50) (Dlat IC50 category) of less than 10 µM.
As for `CSc1cccc(-c2ccc(C=C3SC(=S)N(Nc4ccccc4C(=O)O)C3=O)o2)c1` [Compound D52, 2-{5-[1-[5-(3-methylsulfanyl-phenyl)-furan-2-yl]-methylidene]-4-oxo-2-thioxo-thiazolidin-3-ylamino}-benzoic acid], the IC50 (Dlat IC50 category) was less than 10 µM.
Regarding `CCCc1ccc(-c2ccc(C=C3SC(=S)N(Nc4ccccc4C(=O)O)C3=O)o2)cc1` [Compound D60, 2-{5-[1-[5-(4-propyl-phenyl)-furan-2-yl]-methylidene]-4-oxo-2-thioxo-thiazolidin-3-ylamino}-benzoic acid], for the setting “Dlat IC50 category”, the IC50 was less than 10 µM.
As for `O=C(O)c1cccc(CCN2C(=O)C(=Cc3ccc(-c4cc5ccccc5s4)o3)SC2=S)c1` [Compound H1], the IC50 (read-out: Dlat IC50 category) lay within 11 to 40 µM.
Consider `O=C(O)c1cccc(N2C(=O)C(=Cc3ccc(-c4c(Cl)cccc4Cl)o3)SC2=S)c1` [Compound A39], for which the half-maximal inhibitory concentration (IC50) under setting [1] was 11 to 40 µM.
As for `CC(=O)Nc1ccc(-c2ccc(C=C3SC(=S)N(C4CCCC(C(=O)O)C4)C3=O)o2)cc1` (stereo not drawn) [Compound C39, 3-{5-[5-(4-Acetylamino-phenyl)-furan-2-ylmethylene]-4-oxo-2-thioxo-thiazolidin-3-yl}-cyclohexanecarboxylic acid], where the note is “Dlat IC50 category”, the IC50 is less than 10 µM.
The molecule `CSc1ccc(-c2ccc(C=C3SC(=S)N(C4CCC(C(=O)O)CC4)C3=O)o2)cc1` (stereo not drawn) [Compound C65, 4-{5-[1-[5-(4-methylsulfanyl-phenyl)-furan-2-yl]-methylidene]-4-oxo-2-thioxo-thiazolidin-3-yl}-cyclohexanecarboxylic acid] gave an IC50 (Dlat IC50 category) of less than 10 µM.
In the case of `Cc1ccc(-c2cccc(C=C3SC(=S)N(c4cccc(C(=O)O)c4)C3=O)c2)cc1` [Compound A242], the IC50 under setting [1] was 11 to 40 µM.
As to `Cc1ccccc1-c1cccc(C=C2SC(=S)N(c3cc(C(=O)O)ccc3F)C2=O)n1` [Compound A161], the half-maximal inhibitory concentration (IC50) under setting [1] is less than 10 µM.
With `COc1ccccc1-c1ccc(C=C2SC(=S)N(c3cc(C(=O)O)ccc3C)C2=O)o1` [Compound A141], under setting [1], the IC50 is less than 10 µM.
Turning to `CCOc1ccc(-c2ccc(C=C3SC(=S)N(C4CCCC(C(=O)O)C4)C3=O)o2)cc1` (stereo not drawn) [Compound C51, 3-{5-[1-[5-(4-ethoxy-phenyl)-furan-2-yl]-methylidene]-4-oxo-2-thioxo-thiazolidin-3-yl}-cyclohexanecarboxylic acid], under “Dlat IC50 category”, the IC50 is less than 10 µM.
The molecule `O=C(O)c1ccc(NN2C(=O)C(=Cc3ccc(-c4ccccc4Cl)o3)SC2=S)cc1` [Compound D20, 4-{5-[5-(2-Chloro-phenyl)-furan-2-ylmethylene]-4-oxo-2-thioxo-thiazolidin-3-ylamino}-benzoic acid] gave an IC50 (Dlat IC50 category) of 11 to 40 µM.
With `O=C(O)c1cccc(N2C(=O)C(=Cc3ccc(-c4ccc5nonc5c4)o3)SC2=S)c1` [Compound Q9], the IC50 (Dlat IC50 category, Table 17, Compounds Q1 to Q9) fell in the range of 11 to 40 µM.
In turn, `CNS(=O)(=O)c1ccc(-c2ccc(C=C3SC(=S)N(C4CCC(C(=O)O)CC4)C3=O)o2)cc1` (stereo not drawn) [Compound C84, 4-{5-[5-(4-Methylsulfamoyl-phenyl)-furan-2-ylmethylene]-4-oxo-2-thioxo-thiazolidin-3-yl}-cyclohexanecarboxylic acid] displayed a half-inhibitory concentration (IC50) (Dlat IC50 category) of less than 10 µM.
Take `CCc1ccccc1-c1ccc(C=C2SC(=S)N(c3cc(C(=O)O)ccc3F)C2=O)o1` [Compound A250]: the IC50 under setting [1] is less than 10 µM.
The molecule `Cc1ccccc1-c1cccc(C=C2SC(=S)N(C3CCCC(C(=O)O)C3)C2=O)n1` (stereo not drawn) [Compound C10, 3-[4-Oxo-2-thioxo-5-(6-o-tolyl-pyridin-2-ylmethylene)-thiazolidin-3-yl]-cyclohexanecarboxylic acid] showed an IC50 (Dlat IC50 category) of 41 to 80 µM.
Regarding `O=C(O)c1cc(N2C(=O)C(=Cc3ccc(-c4ccc(Cl)cc4)o3)SC2=S)cc([N+](=O)[O-])c1` [Compound A90], the IC50 under setting [1] is less than 10 µM.
For `Cc1ccc(-c2ccc(C=C3SC(=S)N(C4CCC(C(=O)O)CC4)C3=O)o2)cc1` (stereo not drawn) [Compound C45, 4-{4-oxo-2-thioxo-5-[1-(5-p-tolyl-furan-2-yl)-methylidene]-thiazolidin-3-yl}-cyclohexanecarboxylic acid], the IC50 (Dlat IC50 category) is less than 10 µM.
`NS(=O)(=O)c1ccc(-c2ccc(C=C3SC(=S)N(c4cccc(C(=O)O)c4)C3=O)o2)cc1` [Compound A288]: the half-maximal inhibitory concentration (IC50) under setting [1] was 11 to 40 µM.
With `O=C(NC(CO)CO)c1cccc(N2C(=O)C(=Cc3ccc(-c4ccccc4Cl)o3)SC2=S)c1` [Compound T7, 3-{5-[1-[5-(2-Chloro-phenyl)-furan-2-yl]-methylidene]-4-oxo-2-thioxo-thiazolidin-3-yl}-N-(2-hydroxy-1-hydroxymethyl-ethyl)-benzamide], the IC50 under setting [2] is 11 to 40 µM.
On to `O=C(O)COc1ccc(N2C(=O)C(=Cc3ccc(-c4ccc(Cl)cc4)o3)SC2=S)cc1` [Compound A45], for which, under setting [1], the IC50 fell in the range of 11 to 40 µM.
Regarding `CC(C)Oc1ccc(-c2ccc(C=C3SC(=S)N(c4cccc(C(=O)O)c4)C3=O)o2)cc1` [Compound A240], the 50% inhibitory concentration (IC50) under setting [1] is less than 10 µM.
Consider `Cc1ccc(-c2ccc(C=C3SC(=S)N(c4cc(C(=O)O)cc(C(F)(F)F)c4)C3=O)cc2)cc1` [Compound A248], for which the IC50 under setting [1] is less than 10 µM.
Turning to `O=C(O)c1ccc(Cl)c(N2C(=O)C(=Cc3ccc(-c4cccc(C(F)(F)F)c4)o3)SC2=S)c1` [Compound A73], under setting [1], the IC50 was less than 10 µM.
For the molecule `O=C1C(=Cc2ccc(-c3ccccc3Cl)o2)SC(=S)N1c1ccc(O)cc1` [Compound A22], the IC50 under setting [1] is less than 10 µM.
For `O=C(O)C(c1ccccc1)N1C(=O)C(=Cc2ccc(-c3ccc(Cl)c(Cl)c3)o2)SC1=S` (stereo not drawn) [Compound B10], the concentration for half-maximal inhibition (IC50) (Dlat IC50 category) was less than 10 µM.
Take `O=C(O)c1ccc(Cl)c(N2C(=O)C(=Cc3ccc(-c4ccc(N5CCOCC5)cc4)o3)SC2=S)c1` [Compound A137]: the half-inhibitory concentration (IC50) under setting [1] was less than 10 µM.
Where the note is “Dlat IC50 category”, `O=C(O)C(Cc1ccc(O)cc1)N1C(=O)C(=Cc2ccc(-c3ccc(Cc4ccccc4)cc3)o2)SC1=S` (stereo not drawn) [Compound B58] yielded an IC50 of less than 10 µM.
For `O=C(O)c1cccc(N2C(=O)C(=Cc3ccc(-c4ccccc4F)o3)SC2=S)c1` [Compound A138], the IC50 under setting [1] lay in the range of 11 to 40 µM.
For the setting “Dlat IC50 category”, `Cc1cc(N(C)C)ccc1-c1ccc(C=C2SC(=S)N(C3CCCC(C(=O)O)C3)C2=O)o1` (stereo not drawn) [Compound C29, 3-{5-[5-(4-Dimethylamino-2-methyl-phenyl)-furan-2-ylmethylene]-4-oxo-2-thioxo-thiazolidin-3-yl}-cyclohexanecarboxylic acid] returned an IC50 of 11 to 40 µM.
With `COc1ccc(C(=O)O)cc1N1C(=O)C(=Cc2ccc(-c3cccc(C(C)C)c3)o2)SC1=S` [Compound A93], the IC50 under setting [1] is less than 10 µM.
On to `O=C(OCCCCO)c1cccc(N2C(=O)C(=Cc3ccc(-c4ccccc4Cl)o3)SC2=S)c1` [Compound T1, 3-{5-[1-[5-(2-Chloro-phenyl)-furan-2-yl]-methylidene]-4-oxo-2-thioxo-thiazolidin-3-yl}-benzoic acid 4-hydroxy-butyl ester], for which the IC50 under setting [2] was 41 to 80 µM.
Take `O=C(O)CCc1cccc(N2C(=O)C(=Cc3ccc(-c4ccccc4Cl)o3)SC2=S)c1` [Compound A118]: under setting [1], the concentration for half-maximal inhibition (IC50) was less than 10 µM.
On to `O=C(O)c1cccc(N2C(=O)C(=Cc3ccc(-c4ccc(Oc5ccccc5)cc4)o3)SC2=S)c1` [Compound A13], for which the IC50 under setting [1] was less than 10 µM.
For the setting “Dlat IC50 category”, `O=C(O)CN1C(=O)C(=Cc2ccc(-c3ccc(CSc4ccccc4)cc3)o2)SC1=S` [Compound B71] had an IC50 of 11 to 40 µM.
As for `O=C(O)c1cc(N2C(=O)C(=Cc3ccc(-c4ccccc4Cl)o3)SC2=S)cc(C(F)(F)F)c1` [Compound A221], the IC50 under setting [1] fell in the range of 11 to 40 µM.
Consider `O=C(O)c1cccc(N2C(=O)C(=Cc3ccc(-c4cccc(Cl)c4Cl)o3)SC2=S)c1` [Compound A117], for which, under setting [1], the IC50 was less than 10 µM.
For the molecule `O=C(O)C(Cc1ccccc1)N1C(=O)C(=Cc2ccc(-c3ccc(Cl)cc3Cl)o2)SC1=S` (stereo not drawn) [Compound B45], the IC50 (Dlat IC50 category) is less than 10 µM.
`O=C(O)c1cc(N2C(=O)C(=Cc3ccc(Cc4ccccc4Cl)o3)SC2=S)ccc1O` [Compound N3] gave a 50% inhibitory concentration (IC50) (Dlat IC50 category, Table 14, Compounds N1 to N3) of less than 10 µM.
With `COc1ccc(-c2ccc(C=C3SC(=S)N(c4cc(C(=O)O)ccc4F)C3=O)o2)cc1` [Compound A166], under setting [1], the IC50 was less than 10 µM.
Consider `O=C(O)c1ccccc1NN1C(=O)C(=Cc2ccc(-c3ccccc3Cl)s2)SC1=S` [Compound D35, 2-{4-oxo-2-thioxo-5-[1-(5-2-chloro-thiophen-2-yl)-methylidene]-thiazolidin-3-ylamino}-benzoic acid], for which the IC50 (Dlat IC50 category) is less than 10 µM.
